Source: ChEMBL document CHEMBL4270552, “4-(Phenoxy) and 4-(benzyloxy)benzamides as potent and selective inhibitors of mono-ADP-ribosyltransferase PARP10/ARTD10” (Eur J Med Chem, 2018)

Key:
[1] = biological target: T1, Protein mono-ADP-ribosyltransferase PARP10 (Homo sapiens, UniProt Q53GL7); assay: Inhibition of C-terminal His-tagged human ARTD10 (809 to 1017 residues) expressed in Escherichia coli Rosetta2 (DE3) using SRPK2 as substrate after 13 hrs in presence of NAD+
T1 sequence (Q53GL7 whole entry): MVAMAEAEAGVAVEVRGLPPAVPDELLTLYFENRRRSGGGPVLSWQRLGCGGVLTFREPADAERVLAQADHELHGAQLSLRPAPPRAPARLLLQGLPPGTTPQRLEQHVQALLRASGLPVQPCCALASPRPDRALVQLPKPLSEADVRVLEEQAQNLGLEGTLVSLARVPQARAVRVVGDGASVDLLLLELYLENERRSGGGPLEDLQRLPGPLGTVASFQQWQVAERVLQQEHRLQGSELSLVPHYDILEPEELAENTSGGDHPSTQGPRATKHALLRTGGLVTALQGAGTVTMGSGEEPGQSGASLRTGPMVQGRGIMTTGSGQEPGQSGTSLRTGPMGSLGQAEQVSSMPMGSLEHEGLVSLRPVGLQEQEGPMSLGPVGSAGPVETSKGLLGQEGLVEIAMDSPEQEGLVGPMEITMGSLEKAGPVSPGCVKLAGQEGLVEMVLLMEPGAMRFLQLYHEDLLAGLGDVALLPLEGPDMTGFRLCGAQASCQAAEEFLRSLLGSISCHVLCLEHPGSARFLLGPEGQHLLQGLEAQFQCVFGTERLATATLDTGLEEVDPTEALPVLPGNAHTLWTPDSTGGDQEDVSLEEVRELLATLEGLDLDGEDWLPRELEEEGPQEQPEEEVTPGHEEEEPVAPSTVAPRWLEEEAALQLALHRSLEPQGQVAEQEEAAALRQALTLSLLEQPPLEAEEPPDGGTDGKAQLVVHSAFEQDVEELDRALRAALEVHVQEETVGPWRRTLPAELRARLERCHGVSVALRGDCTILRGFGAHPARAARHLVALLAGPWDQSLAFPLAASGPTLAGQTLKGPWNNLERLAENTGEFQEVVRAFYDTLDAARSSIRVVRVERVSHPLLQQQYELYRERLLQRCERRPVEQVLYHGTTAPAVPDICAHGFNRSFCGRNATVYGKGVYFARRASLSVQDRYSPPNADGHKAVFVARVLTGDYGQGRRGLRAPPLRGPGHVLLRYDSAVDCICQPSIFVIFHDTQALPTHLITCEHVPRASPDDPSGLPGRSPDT

[2] = biological target: T2, Protein mono-ADP-ribosyltransferase PARP12 (Homo sapiens, UniProt Q9H0J9); assay: Inhibition of N-terminal His-tagged thioredoxin-fused human ARTD12 (469 to 701 residues) expressed in Escherichia coli Rosetta2 (DE3) after 20 hrs in presence of NAD+
T2 sequence (Q9H0J9 whole entry): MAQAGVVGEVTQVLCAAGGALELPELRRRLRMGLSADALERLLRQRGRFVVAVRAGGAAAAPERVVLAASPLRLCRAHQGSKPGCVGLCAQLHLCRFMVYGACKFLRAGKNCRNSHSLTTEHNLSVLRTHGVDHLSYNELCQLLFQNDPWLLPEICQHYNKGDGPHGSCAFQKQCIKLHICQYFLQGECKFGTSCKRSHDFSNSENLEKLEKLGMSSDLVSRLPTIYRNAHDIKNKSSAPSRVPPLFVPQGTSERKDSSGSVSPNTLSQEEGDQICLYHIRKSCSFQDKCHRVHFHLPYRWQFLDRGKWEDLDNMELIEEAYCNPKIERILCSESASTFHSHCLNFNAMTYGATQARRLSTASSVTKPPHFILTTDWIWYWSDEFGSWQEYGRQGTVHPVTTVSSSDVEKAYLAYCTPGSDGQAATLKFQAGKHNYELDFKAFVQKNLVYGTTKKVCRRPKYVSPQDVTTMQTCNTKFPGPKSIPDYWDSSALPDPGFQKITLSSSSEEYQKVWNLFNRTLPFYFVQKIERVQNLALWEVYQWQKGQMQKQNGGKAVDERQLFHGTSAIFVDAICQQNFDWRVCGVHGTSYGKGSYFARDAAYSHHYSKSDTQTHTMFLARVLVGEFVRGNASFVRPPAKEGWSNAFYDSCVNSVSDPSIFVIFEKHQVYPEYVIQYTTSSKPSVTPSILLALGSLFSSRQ

[3] = biological target: Protein mono-ADP-ribosyltransferase PARP4 (Homo sapiens, UniProt Q9UKK3); assay: Inhibition of N-terminal His-tagged human ARTD4 (250 to 565 residues) expressed in Escherichia coli Rosetta2 (DE3) using TCEP as substrate after 2.5 hrs in presence of NAD+
[4] = biological target: T3, Protein mono-ADP-ribosyltransferase PARP10 (Homo sapiens) (UniProt Q53GL7)
T3 sequence (whole entry): T1 sequence (Q53GL7 whole entry)
Description: Stabilization of C-terminal His-tagged human ARTD10 (809 to 1017 residues) expressed in Escherichia coli Rosetta2 (DE3) assessed as change in melting temperature at 100 uM by SYPRO Orange-dye based differential scanning fluorimetric method

[5] = biological target: Zinc finger CCCH-type antiviral protein 1 (Homo sapiens) (UniProt Q7Z2W4)
Description: Stabilization of human ARTD13 expressed in Escherichia coli assessed as change in melting temperature at 100 uM by SYPRO Orange-dye based differential scanning fluorimetric method

[6] = biological target: Protein mono-ADP-ribosyltransferase PARP9 (Homo sapiens) (UniProt Q8IXQ6)
Description: Stabilization of human ARTD9 expressed in Escherichia coli assessed as change in melting temperature at 100 uM by SYPRO Orange-dye based differential scanning fluorimetric method

Sequence of Zinc finger CCCH-type antiviral protein 1 (Homo sapiens) (Q7Z2W4 whole entry): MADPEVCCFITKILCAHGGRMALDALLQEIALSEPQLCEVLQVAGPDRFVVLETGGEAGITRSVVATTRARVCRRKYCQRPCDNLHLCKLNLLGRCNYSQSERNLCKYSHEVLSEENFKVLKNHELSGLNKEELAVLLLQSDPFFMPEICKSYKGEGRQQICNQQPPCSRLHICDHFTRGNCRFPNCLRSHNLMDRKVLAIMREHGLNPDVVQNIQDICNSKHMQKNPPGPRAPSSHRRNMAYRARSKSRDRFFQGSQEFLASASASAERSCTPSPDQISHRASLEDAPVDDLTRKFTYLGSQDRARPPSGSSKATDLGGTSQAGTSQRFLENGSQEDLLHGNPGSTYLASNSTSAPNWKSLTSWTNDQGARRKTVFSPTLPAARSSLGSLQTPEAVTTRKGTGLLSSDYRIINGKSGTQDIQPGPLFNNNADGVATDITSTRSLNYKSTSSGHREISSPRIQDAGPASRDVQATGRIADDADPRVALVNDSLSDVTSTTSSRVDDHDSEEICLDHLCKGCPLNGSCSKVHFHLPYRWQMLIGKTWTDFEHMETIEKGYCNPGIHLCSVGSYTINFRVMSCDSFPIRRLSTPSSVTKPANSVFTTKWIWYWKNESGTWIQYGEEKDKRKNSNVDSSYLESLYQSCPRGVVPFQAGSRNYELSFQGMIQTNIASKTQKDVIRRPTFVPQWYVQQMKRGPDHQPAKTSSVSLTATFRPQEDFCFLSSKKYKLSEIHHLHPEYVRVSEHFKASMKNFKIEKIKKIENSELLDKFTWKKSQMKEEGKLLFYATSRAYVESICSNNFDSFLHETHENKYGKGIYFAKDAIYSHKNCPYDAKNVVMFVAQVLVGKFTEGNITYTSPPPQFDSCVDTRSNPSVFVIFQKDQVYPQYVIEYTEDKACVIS
Sequence of Protein mono-ADP-ribosyltransferase PARP4 (Q9UKK3 whole entry, the tested form may be a part): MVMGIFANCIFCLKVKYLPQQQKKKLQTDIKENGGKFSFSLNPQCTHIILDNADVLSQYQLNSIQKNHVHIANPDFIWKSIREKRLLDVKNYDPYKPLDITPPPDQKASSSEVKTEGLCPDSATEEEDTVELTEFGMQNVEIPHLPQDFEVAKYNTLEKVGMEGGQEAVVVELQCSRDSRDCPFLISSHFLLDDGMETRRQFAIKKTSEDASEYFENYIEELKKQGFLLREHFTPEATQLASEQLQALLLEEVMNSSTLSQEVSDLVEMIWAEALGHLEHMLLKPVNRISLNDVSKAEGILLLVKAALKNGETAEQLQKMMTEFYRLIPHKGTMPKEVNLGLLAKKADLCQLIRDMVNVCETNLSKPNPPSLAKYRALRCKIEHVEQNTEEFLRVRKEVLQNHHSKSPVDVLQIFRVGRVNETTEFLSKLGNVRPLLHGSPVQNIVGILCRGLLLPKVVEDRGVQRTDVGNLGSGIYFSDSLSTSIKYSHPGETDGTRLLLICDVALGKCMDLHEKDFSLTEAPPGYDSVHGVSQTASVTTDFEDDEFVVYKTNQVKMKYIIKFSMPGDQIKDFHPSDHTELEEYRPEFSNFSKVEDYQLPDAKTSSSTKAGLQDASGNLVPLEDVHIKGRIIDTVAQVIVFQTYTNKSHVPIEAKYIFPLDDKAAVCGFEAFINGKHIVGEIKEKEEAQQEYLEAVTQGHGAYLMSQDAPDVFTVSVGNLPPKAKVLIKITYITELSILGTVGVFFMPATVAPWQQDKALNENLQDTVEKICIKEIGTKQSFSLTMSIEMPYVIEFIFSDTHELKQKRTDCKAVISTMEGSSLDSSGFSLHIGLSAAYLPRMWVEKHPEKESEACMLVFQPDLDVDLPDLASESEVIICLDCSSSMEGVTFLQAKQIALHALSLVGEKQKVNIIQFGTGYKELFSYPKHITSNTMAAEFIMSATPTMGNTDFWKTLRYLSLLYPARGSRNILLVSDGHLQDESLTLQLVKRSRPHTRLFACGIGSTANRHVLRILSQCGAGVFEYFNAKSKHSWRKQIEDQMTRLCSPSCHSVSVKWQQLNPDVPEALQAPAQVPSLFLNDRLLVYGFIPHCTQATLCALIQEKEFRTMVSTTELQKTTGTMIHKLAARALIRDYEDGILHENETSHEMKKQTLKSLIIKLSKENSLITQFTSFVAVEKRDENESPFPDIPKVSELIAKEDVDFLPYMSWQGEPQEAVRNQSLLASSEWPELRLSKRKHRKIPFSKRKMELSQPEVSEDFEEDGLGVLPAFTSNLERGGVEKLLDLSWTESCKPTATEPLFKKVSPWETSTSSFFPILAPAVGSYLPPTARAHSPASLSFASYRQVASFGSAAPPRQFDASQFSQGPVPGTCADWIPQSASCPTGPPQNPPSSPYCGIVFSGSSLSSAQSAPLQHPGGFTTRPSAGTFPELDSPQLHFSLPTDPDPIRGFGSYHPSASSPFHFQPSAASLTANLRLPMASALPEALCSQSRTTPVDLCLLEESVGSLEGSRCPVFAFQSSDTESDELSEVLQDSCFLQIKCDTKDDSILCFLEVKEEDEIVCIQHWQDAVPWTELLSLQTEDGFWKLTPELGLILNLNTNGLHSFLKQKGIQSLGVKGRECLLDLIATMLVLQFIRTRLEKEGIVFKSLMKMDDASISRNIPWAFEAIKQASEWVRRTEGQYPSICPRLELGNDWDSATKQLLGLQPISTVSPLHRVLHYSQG

| IC50 ([1]; read-out: IC50) [nM] | IC50 ([1]; read-out: pIC50 (converted)) [nM] | SMILES | also measured |
| --- | --- | --- | --- |
| 2000 | – | NC(=O)c1ccc(COc2ccc(C(N)=O)cc2)cc1 | – |
| 1400 | 1450 | NC(=O)c1ccc(OCc2cccc3ccccc23)cc1 | – |
| 1400 | 1380 | COc1ccc(Oc2ccc(C(N)=O)cc2)cc1 | – |
| 3500 | 3390 | CCOc1ccc(C(N)=O)cc1 | – |
| 1300 | 1260 | CC(C)Oc1ccc(C(N)=O)cc1 | – |
| – | – | NC(=O)c1ccc(Oc2ccc(C(N)=O)cc2)cc1 | IC50 [2]: > 10000 nM; IC50 [3]: 23000 nM; ΔTm [4]: 3.8 °C; ΔTm [5]: 0.4 °C; ΔTm [6]: 0.72 °C |
| 4500 | 4570 | Cc1cc(C)cc(COc2ccc(C(N)=O)cc2)c1 | – |
| 9300 | 9330 | Cc1ccc(COc2ccc(C(N)=O)cc2)cc1 | – |
| 1350 | 1350 | NC(=O)c1ccc(OCc2ccccn2)cc1 | – |
| 1100 | 1150 | NC(=O)c1ccc(Oc2ccccc2)cc1 | – |
| 3300 | 3310 | NC(=O)c1ccc(OCc2cccc(F)c2)cc1 | – |
| 1900 | 1950 | NC(=O)c1ccc(OCCOc2ccccc2)cc1 | – |
| 1800 | 1740 | NC(=O)c1ccc(Oc2ccc(O)cc2)cc1 | – |
| 7300 | 7240 | NC(=O)c1ccc(OC(=O)c2ccccc2)cc1 | – |
| 1300 | 1260 | NC(=O)c1ccc(Oc2ccc(N)cc2)cc1 | – |
| 3800 | 3800 | NC(=O)c1ccc(OCc2ccccc2Br)cc1 | – |
| 720 | 724 | NC(=O)c1ccc(OC2CCC2)cc1 | – |
| 1400 | 1350 | NC(=O)c1ccc(OCc2ccccc2)cc1 | – |
| 7900 | 7940 | NC(=O)c1ccc(OCc2ccc(F)cc2)cc1 | – |
| 1700 | 1700 | NC(=O)c1ccc(Oc2ccccc2F)cc1 | – |
